Data from patent US20070004660A1, “Synergistic Modulation of Flt3 Kinase Using Alkylquinolines and Alkylquinazolines” (priority 2005, published 2007).
Where a name gives a salt, the structure may show the parent alone.

Legend:
[1] = tested on: MV4-11 cells; experiment: Inhibition of MV4-11 cell proliferation (CellTiterGlo, 72 h); assay type: cell-based; settings: Homo sapiens; 72 h growth inhibition; uncertainty ±20%
[2] = molecular target: T1, isolated kinase domain of the human FLT3 receptor (a.a. 571-993) (Homo sapiens, UniProt P36888); experiment: FLT3 fluorescence polarization kinase assay; assay type: biochemical; settings: 150 uM ATP; uncertainty ±10%
T1 construct: human FLT3 receptor (a.a. 571-993)
T1 sequence (P36888 571-993): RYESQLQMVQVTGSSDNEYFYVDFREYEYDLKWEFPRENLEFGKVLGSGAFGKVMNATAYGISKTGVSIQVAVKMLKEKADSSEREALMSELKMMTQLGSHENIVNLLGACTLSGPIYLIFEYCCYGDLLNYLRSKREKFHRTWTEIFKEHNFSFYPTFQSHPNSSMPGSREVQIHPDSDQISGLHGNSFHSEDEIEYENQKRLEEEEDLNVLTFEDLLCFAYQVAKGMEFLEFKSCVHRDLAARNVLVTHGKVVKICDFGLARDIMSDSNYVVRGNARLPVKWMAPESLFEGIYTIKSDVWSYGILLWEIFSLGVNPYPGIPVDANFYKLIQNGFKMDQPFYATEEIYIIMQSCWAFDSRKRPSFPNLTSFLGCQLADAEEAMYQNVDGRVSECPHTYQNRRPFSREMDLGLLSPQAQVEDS

Row | SMILES | IC50 [1] [nM] | IC50 [2] [nM]
1 | COc1cc2ncnc(C3CCN(C(=O)Nc4ccc(CO)cc4)CC3)c2cc1OC [Example 22, 4-(6,7-Dimethoxy-quinazolin-4-yl)-piperidine-1-carboxylic acid (4-hydroxymethyl-phenyl)-amide] | > 10000 | 4400
2 | O=C(Nc1ccc(N2CCCC2)cc1)N1CCC(c2ncnc3cc(Oc4cccnc4)ccc23)CC1 [Example 174, 4-[7-(Pyridin-3-yloxy)-quinazolin-4-yl]-piperidine-1-carboxylic acid (4-pyrrolidin-1-yl-phenyl)-amide] | 214 | 42
3 | O=C(Nc1ccc(N2CCCC2)cc1)N1CCC(c2ncnc3cc(N4CCOC4=O)ccc23)CC1 [Example 176, 4-[7-(2-Oxo-oxazolidin-3-yl)-quinazolin-4-yl]-piperidine-1-carboxylic acid (4-pyrrolidin-1-yl-phenyl)-amide] | 8 | 102
4 | O=C(Nc1ccc(N2CCCC2)cc1)N1CCC(c2ncnc3cc(N4CCN(CCO)CC4)ccc23)CC1 [Compound 185, 4-{7-[4-(2-Hydroxy-ethyl)-piperazin-1-yl]-quinazolin-4-yl}-piperidine-1-carboxylic acid (4-pyrrolidin-1-yl-phenyl)-amide] | 6 | 55
5 | CS(=O)(=O)N1CCN(CCCOc2ccc3c(C4CCN(C(=O)Nc5ccc(N6CCCC6)cc5)CC4)ncnc3c2)CC1 [Example 164, 4-{7-[3-(4-Methanesulfonyl-piperazin-1-yl)-propoxy]-quinazolin-4-yl}-piperidine-1-carboxylic acid (4-pyrrolidin-1-yl-phenyl)-amide] | 36 | 25
6 | O=C(Nc1ccc(N2CCCC2)cc1)N1CCC(c2ncnc3cc(OCCO)ccc23)CC1 [Example 169, 4-[7-(2-Hydroxy-ethoxy)-quinazolin-4-yl]-piperidine-1-carboxylic acid (4-pyrrolidin-1-yl-phenyl)-amide] | 32 | 32
7 | COc1cc2ncnc(C3CCN(C(=O)Nc4ccc(OC(C)C)cc4)CC3)c2cc1OC [Example 1, 4-(6,7-Dimethoxy-quinazolin-4-yl)-piperidine-1-carboxylic acid (4-isopropoxy-phenyl)-amide hydrochloride] | 88 | 46
8 | CC(=O)N1CC[C@@H](Oc2ccc3c(C4CCN(C(=O)Nc5ccc(N6CCCC6)cc5)CC4)ncnc3c2)C1 [Example 154, (R)-4-[7-(1-Acetyl-pyrrolidin-3-yloxy)-quinazolin-4-yl]-piperidine-1-carboxylic acid (4-pyrrolidin-1-yl-phenyl)-amide] | 63 | 15
9 | COCCN1CCN(c2ccc3c(C4CCN(C(=O)Nc5ccc(N6CCCC6)cc5)CC4)ncnc3c2)CC1 [Compound 186, 4-{7-[4-(2-Methoxy-ethyl)-piperazin-1-yl]-quinazolin-4-yl}-piperidine-1-carboxylic acid (4-pyrrolidin-1-yl-phenyl)-amide] | 15 | 93
10 | COc1cc2ncnc(C3CCN(C(=O)Nc4ccc(C5CCCCC5)cc4)CC3)c2cc1OC [Example 21, 4-(6,7-Dimethoxy-quinazolin-4-yl)-piperidine-1-carboxylic acid (4-cyclohexyl-phenyl)-amide] | 27 | 7
11 | CN1CCN(CCOc2ccc3c(C4CCN(C(=O)Nc5ccc(N6CCCC6)cc5)CC4)ncnc3c2)CC1 [Example 157, 4-{7-[2-(4-Methyl-piperazin-1-yl)-ethoxy]-quinazolin-4-yl}-piperidine-1-carboxylic acid (4-pyrrolidin-1-yl-phenyl)-amide] | 9 | 0.5
12 | CC(=O)N1CCC(COc2ccc3c(C4CCN(C(=O)Nc5ccc(N6CCCC6)cc5)CC4)ncnc3c2)CC1 [Example 163, 4-[7-(1-Acetyl-piperidin-4-ylmethoxy)-quinazolin-4-yl]-piperidine-1-carboxylic acid (4-pyrrolidin-1-yl-phenyl)-amide] | 20 | 11
13 | CCN(CC)CCCOc1ccc2c(C3CCN(C(=O)Nc4ccc(N5CCOCC5)cc4)CC3)ncnc2c1 [Example 134, 4-[7-(3-Diethylamino-propoxy)-quinazolin-4-yl]-piperidine-1-carboxylic acid (4-morpholin-4-yl-phenyl)-amide] | 43 | 2
14 | O=C(Nc1ccc(N2CCCC2)cc1)N1CCC(c2ncnc3cc(OCCN4CCC[C@H]4CO)ccc23)CC1 [Example 152, (S)-4-{7-[2-(2-Hydroxymethyl-pyrrolidin-1-yl)-ethoxy]-quinazolin-4-yl}-piperidine-1-carboxylic acid (4-pyrrolidin-1-yl-phenyl)-amide] | 21 | 18
15 | CC(=O)N1CCC[C@H]1COc1ccc2c(C3CCN(C(=O)Nc4ccc(N5CCCC5)cc4)CC3)ncnc2c1 [Example 162, (S)-4-[7-(1-Acetyl-pyrrolidin-2-ylmethoxy)-quinazolin-4-yl]-piperidine-1-carboxylic acid (4-pyrrolidin-1-yl-phenyl)-amide] | 46 | 32
16 | O=C(Nc1ccc(N2CCOCC2)cc1)N1CCC(c2ncnc3cc(N4CCC(F)CC4)ccc23)CC1 [Compound 196, 4-[7-(4-Fluoro-piperidin-1-yl)-quinazolin-4-yl]-piperidine-1-carboxylic acid (4-morpholin-4-yl-phenyl)-amide] | 75 | 291
17 | O=C(Nc1ccc(N2CCCC2)cc1)N1CCC(c2ncnc3cc(N4CCNC4=O)ccc23)CC1 [Compound 178, 4-[7-(2-Oxo-imidazolidin-1-yl)-quinazolin-4-yl]-piperidine-1-carboxylic acid (4-pyrrolidin-1-yl-phenyl)-amide] | 11 | 10
18 | O=C(Nc1ccc(N2CCCC2)cc1)N1CCC(c2ncnc3cc(N4CCSCC4)ccc23)CC1 [Compound 182, 4-(7-Thiomorpholin-4-yl-quinazolin-4-yl)-piperidine-1-carboxylic acid (4-pyrrolidin-1-yl-phenyl)-amide] | 107 | 11
19 | CC(=O)N1CC(Oc2ccc3c(C4CCN(C(=O)Nc5ccc(N6CCCC6)cc5)CC4)ncnc3c2)C1 [Example 170, 4-[7-(1-Acetyl-azetidin-3-yloxy)-quinazolin-4-yl]-piperidine-1-carboxylic acid (4-pyrrolidin-1-yl-phenyl)-amide] | 97 | 290
20 | CN(C)CC(=O)N1CCN(c2ccc3c(C4CCN(C(=O)Nc5ccc(N6CCOCC6)cc5)CC4)ncnc3c2)CC1 [Example 144, 4-{7-[4-(2-Dimethylamino-acetyl)-piperazin-1-yl]-quinazolin-4-yl}-piperidine-1-carboxylic acid (4-morpholin-4-yl-phenyl)-amide] | 117 | 13
21 | O=C(Nc1ccc(N2CCOCC2)cc1)N1CCC(c2ncnc3cc(N4CCNCC4)ccc23)CC1 [Example 140, 4-(7-Piperazin-1-yl-quinazolin-4-yl)-piperidine-1-carboxylic acid (4-morpholin-4-yl-phenyl)-amide] | 170 | 45
22 | CC(=O)N1CCN(c2ccc3c(C4CCN(C(=O)Nc5ccc(N6CCCC6)cc5)CC4)ncnc3c2)CC1 [Example 166, 4-[7-(4-Acetyl-piperazin-1-yl)-quinazolin-4-yl]-piperidine-1-carboxylic acid (4-pyrrolidin-1-yl-phenyl)-amide] | 17 | 9
23 | O=C(Nc1ccc(N2CCCC2)cc1)N1CCC(c2ncnc3cc(N4CCN(c5ccccn5)CC4)ccc23)CC1 [Compound 192, 4-[7-(4-Pyridin-2-yl-piperazin-1-yl)-quinazolin-4-yl]-piperidine-1-carboxylic acid (4-pyrrolidin-1-yl-phenyl)-amide] | 13 | 2
24 | CN1CCCN(c2ccc3c(C4CCN(C(=O)Nc5ccc(N6CCOCC6)cc5)CC4)ncnc3c2)CC1 [Example 138, 4-[7-(4-Methyl-[1,4]diazepan-1-yl)-quinazolin-4-yl]-piperidine-1-carboxylic acid (4-morpholin-4-yl-phenyl)-amide] | 220 | 28
25 | O=C(Nc1ccc(N2CCCC2)cc1)N1CCC(c2ncnc3cc(OCC4CCOCC4)ccc23)CC1 [Compound 188, 4-[7-(Tetrahydro-pyran-4-ylmethoxy)-quinazolin-4-yl]-piperidine-1-carboxylic acid (4-pyrrolidin-1-yl-phenyl)-amide] | 67 | 386
26 | COc1cc2ncnc(C3CCN(C(=O)Nc4ccc(N5CCOCC5)cc4)CC3)c2cc1OC [Example 18, 4-(6,7-Dimethoxy-quinazolin-4-yl)-piperidine-1-carboxylic acid (4-morpholin-4-yl-phenyl)-amide] | 137 | 62
27 | O=C(Nc1ccc(N2CCOCC2)cc1)N1CCC(c2ncnc3cc(N4CCN(CCO)CC4)ccc23)CC1 [Example 137, 4-{7-[4-(2-Hydroxy-ethyl)-piperazin-1-yl]-quinazolin-4-yl}-piperidine-1-carboxylic acid (4-morpholin-4-yl-phenyl)-amide] | 74 | 12
28 | O=C(Nc1ccc(N2CCOCC2)cc1)N1CCC(c2ncnc3cc(N4CCC[C@H]4CO)ccc23)CC1 [Example 139, (S)-4-[7-(2-Hydroxymethyl-pyrrolidin-1-yl)-quinazolin-4-yl]-piperidine-1-carboxylic acid (4-morpholin-4-yl-phenyl)-amide] | 387 | 33
